Reference: US20030130493A1, “DNA encoding Edg7 receptor” (priority 1999, published 2003)
One block for each compound: values may come before it.

Experiments:
human Edg7 receptor [1] = molecular target: T1, human Edg7 receptor (Homo sapiens, UniProt Q9UBY5); test: Intracellular calcium mobilization (FLIPR, fluo-3) in Edg7-transfected CHO cells; format: cell-based; parameters: expressed in transfected cells; host or cells: CHO (transient, electroporation); conditions: for activity against Edg7: data not shown
T1 sequence (Q9UBY5 1-353): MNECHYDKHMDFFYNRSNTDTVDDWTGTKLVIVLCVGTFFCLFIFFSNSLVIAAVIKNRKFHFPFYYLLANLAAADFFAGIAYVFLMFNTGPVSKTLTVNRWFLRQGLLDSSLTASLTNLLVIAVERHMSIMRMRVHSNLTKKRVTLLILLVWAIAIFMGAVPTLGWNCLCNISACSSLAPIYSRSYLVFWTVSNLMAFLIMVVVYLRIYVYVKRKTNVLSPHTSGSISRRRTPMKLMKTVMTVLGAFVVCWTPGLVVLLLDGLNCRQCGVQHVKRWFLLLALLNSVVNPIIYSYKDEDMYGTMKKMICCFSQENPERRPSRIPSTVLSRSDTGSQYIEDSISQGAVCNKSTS
Description: (§1) Cells expressing the receptor of interest are plated into clear, flat-bottom, black-wall 96-well plates (Costar) at a density of 80,000-150,000 cells per well and allowed to incubate for 48 hr at 5% CO2, 37° C. The growth medium is aspirated and 100 μl of loading medium containing fluo-3 dye is added to each well. The loading medium contains: Hank's BSS (without phenol red)(Gibco), 20 mM HEPES (Sigma), 0.1 or 1% BSA (Sigma), dye/pluronic acid mixture (e.g. 1 mM Flou-3, AM (Molecular Probes) and 10% pluronic acid (Molecular Probes) mixed immediately before use), and 2.5 mM probenecid (Sigma)(prepared fresh) The cells are allowed to incubate for about 1 hour at 5% CO2, 37° C.
During the dye loading incubation the compound plate is prepared. The compounds are diluted in wash buffer (Hank's BSS (without phenol red), 20 mM HEPES, 2.5 mM probenecid) to a 4×final concentration and aliquoted into a clear v-bottom plate (Nunc). Following the incubation the cells are washed to remove the excess dye. A Denley plate washer is used to gently wash the cells 4 times and leave a 100 μl final volume of wash buffer in each well. The cell plate is placed in the center tray and the compound plate is placed in the right tray of the FLIPR. The FLIPR software is setup for the experiment, the experiment is run and the data are collected. The data are then analyzed using an excel spreadsheet program.

human Edg7 receptor [2] = molecular target: T1, human Edg7 receptor; test: Calcium-activated Cl- currents in Xenopus oocytes injected with Edg7 mRNA; format: cell-based
Description: Oocytes are harvested from Xenopus laevis and injected with mRNA transcripts as previously described (Quick and Lester, 1994; Smith et al.,1997). Edg7 receptor RNA transcript is synthesized using the T7 polymerase (“Message Machine,” Ambion) from linearized plasmids or PCR products containing the complete coding region of the gene. Oocytes are injected with 1-50 ng synthetic receptor RNA and incubated for 3-8 days at 17° C. Currents are recorded under dual electrode voltage clamp (Axon Instruments Inc.) with 3 M KCl-filled glass microelectrodes having resistances of 1-2 Mohm. Unless otherwise specified, oocytes are voltage clamped at a holding potential of −80 mV. During recordings, oocytes are bathed in continuously flowing (1-3 ml/min) medium containing 96 mM NaCl, 2 mM KCl, 1.8 MM CaCl2, 1 mM MgCl2, and 5 mM HEPES, pH 7.5 (ND96). Drugs are applied either by local perfusion from a 10 μl glass capillary tube fixed at a distance of 0.5 mm from the oocyte, or by switching from a series of gravity fed perfusion lines.
Activation of the phospholipase C (PLC) pathway is assayed by applying a test compound in ND96 solution to oocytes previously injected with mRNA for the Edg7 receptor and observing inward currents at a holding potential of approximately −80 mV. The appearance of currents that reverse at −25 mV and display other properties of the Ca^++-activated Cl^− channel is indicative of receptor-activation of PLC and release of IP3 and intracellular Ca^++.
Involvement of the Gi/o class of G-proteins in GPCR-stimulated Ca^++-activated Cl^− currents is evaluated using PTX, a toxin which inactivates Gi/o G-proteins. Oocytes are injected with 25 ng PTX/oocyte and modulation of Ca^++-activated Cl^− currents by Edg7 receptor is evaluated 2-5 h subsequently.

[3] = tested on: LPA receptors endogenous to oocytes; test: Calcium-activated Cl- currents in control (uninjected) Xenopus oocytes; format: cell-based, Xenopus laevis
human Edg7 receptor [4] = molecular target: T1, human Edg7 receptor; test: Inositol phosphate (IP) release in Edg7-transfected Cos-7, HEK293 and CHO cells; format: cell-based; parameters: expressed in transfected cells; host or cells: Cos-7, HEK293, CHO (transient, electroporation); conditions: for ability to activate Edg7 (inositol phosphate formation): Cos-7 cells transfected with Edg7, varying concentrations
Description: A typical protocol for the electroporation method as applied to Cos-7 cells is described as follows. Cells to be used for transfection are split 24 hours prior to the transfection to provide flasks which are subconfluent at the time of transfection. The cells are harvested by trypsinization resuspended in their growth media and counted. 5×10^6 cells are suspended in 300 μl of DMEM and placed into an electroporation cuvette. 8 μg of receptor DNA plus 8 μg of any additional DNA needed (e.g. G protein expression vector, reporter construct, antibiotic resistance marker, mock vector, etc.) is added to the cell suspension, the cuvette is placed into a BioRad Gene Pulser and subjected to an electrical pulse (Gene Pulser settings: 0.25 kV voltage, 950 μF capacitance). Following the pulse, 800 μl of complete DMEM is added to each cuvette and the suspension transferred to a sterile tube. Complete medium is added to each tube to bring the final cell concentration to 1×10^5 cells/100 μl. The cells are then plated as needed depending upon the type of assay to be performed. Edg7 receptor-mediated activation of the inositol phosphate (IP) second messenger pathways was assessed by radiometric measurement of IP products. In a 96 well microplate format assay, cells are plated at a density of 70,000 cells per well and allowed to incubate for 24 hours. The cells are then labeled with 0.5 μCi [^3H]myo-inositol overnight at 37° C., 5% CO2. Immediately before the assay, the medium is removed and replaced with 90 μL of PBS containing 10 mM LiCl. The plates are then incubated for 15 min at 37° C., 5% CO2. Following the incubation, the cells are challenged with agonist (10 μl/well; 10×concentration) for 30 min at 37° C., 5% CO2. The challenge is terminated by the addition of 100 μL of 50% v/v trichloroacetic acid, followed by incubation at 4° C. for greater than 30 minutes. Total IPs are isolated from the lysate by ion exchange chromatography. Briefly, the lysed contents of the wells are transferred to a Multiscreen HV filter plate (Millipore) containing Dowex AG1-X8 (200-400 mesh, formate form). The filter plates are prepared adding 100μL of Dowex AG1-X8 suspension (50% v/v, water: resin) to each well. The filter plates are placed on a vacuum manifold to wash or elute the resin bed. Each well is first washed 2 times with 200 μl of 5 mM myo-inositol. Total [^3H]inositol phosphates are eluted with 75 μl of 1.2M ammonium formate/0.1M formic acid solution into 96-well plates. 200 μL of scintillation cocktail is added to each well, and the radioactivity is determined by liquid scintillation counting.

[5] = tested on: mock (empty vector)-transfected Cos-7 cells; test: Inositol phosphate (IP) formation in mock (empty vector)-transfected Cos-7 cells; format: cell-based; conditions: 1 μM final concentration, n=4
Description: A typical protocol for the electroporation method as applied to Cos-7 cells is described as follows. Cells to be used for transfection are split 24 hours prior to the transfection to provide flasks which are subconfluent at the time of transfection. The cells are harvested by trypsinization resuspended in their growth media and counted. 5×10^6 cells are suspended in 300 μl of DMEM and placed into an electroporation cuvette. 8 μg of receptor DNA plus 8 μg of any additional DNA needed (e.g. G protein expression vector, reporter construct, antibiotic resistance marker, mock vector, etc.) is added to the cell suspension, the cuvette is placed into a BioRad Gene Pulser and subjected to an electrical pulse (Gene Pulser settings: 0.25 kV voltage, 950 μF capacitance). Following the pulse, 800 μl of complete DMEM is added to each cuvette and the suspension transferred to a sterile tube. Complete medium is added to each tube to bring the final cell concentration to 1×10^5 cells/100 μl. The cells are then plated as needed depending upon the type of assay to be performed. Edg7 receptor-mediated activation of the inositol phosphate (IP) second messenger pathways was assessed by radiometric measurement of IP products. […] 200 μL of scintillation cocktail is added to each well, and the radioactivity is determined by liquid scintillation counting.

[6] = tested on: mock DNA (empty vector)-transfected CHO cells; test: Intracellular calcium mobilization (FLIPR, fluo-3) in mock DNA-transfected CHO cells; format: cell-based, Chinese hamster; conditions: mean±SEM, n=6, read-out: EC50 of increase in intracellular calcium
From the text: In another method, the measurement of intracellular calcium can also be performed on a 96-well (or higher) format and with alternative calcium-sensitive indicators, preferred examples of these are: aequorin, Fluo-3, Fluo-4, Fluo-5, Calcium Green-1, Oregon Green, and 488 BAPTA. After activation of the receptors with agonist ligands the emission elicited by the change of intracellular calcium concentration can be measured by a luminometer, or a fluorescence imager; a preferred example of this is the fluorescence imager plate reader (FLIPR).
as §1
During the dye loading incubation the compound plate is prepared. […] The data are then analyzed using an excel spreadsheet program.

Compound: phosphatidyl choline
- activity against Edg7 (human Edg7 receptor [1]): inactive

Compound: lysophosphatidylserine
- significantly different response in Edg7-expressing cells as compared to mock DNA-transfected cells (human Edg7 receptor [1]; CHO cells, intracellular calcium, 10 μM): significantly different response

Compound: sphingomyelin
- activity against Edg7 (human Edg7 receptor [1]): inactive

Compound: CCCCC/C=C\C/C=C\C/C=C\C/C=C\CCCC(=O)NCCO [anandamide]
- activity against Edg7 (human Edg7 receptor [1]): inactive

Compound: CCCCC[C@H](O)/C=C/[C@H]1[C@H](O)CC(=O)[C@@H]1C/C=C\CCCC(=O)O [prostaglandin E2]
- activity against Edg7 (human Edg7 receptor [1]): inactive

Compound: CCCCCCCCCCCCC/C=C/[C@@H](O)[C@@H](N)COP(=O)(O)O [sphingosine-1-phosphate]
- ability to activate Edg7 (inositol phosphate formation) (human Edg7 receptor [4]): No dose-responsiveness
- activation of Edg7 receptors (intracellular calcium) (human Edg7 receptor [1]; CHO cells, n=4): failed to activate

Compound: CCCCCCCC/C=C\CCCCCCCC(=O)OCC(O)COP(=O)(O)O (centres unmarked) [oleoyl LPA, oleoyl lysophosphatidic acid]
- average increase in IP production [5]: 2 fold
- average increase in IP production (human Edg7 receptor [4]; Edg7-transfected Cos-7 cells, 1 μM final concentration, n=4): 3 fold
- Emax of IP response (human Edg7 receptor [4]; all three cell lines (Cos-7, HEK 293, CHO)): 200-300%
- EC50 [6]: 347 ± 54 nM
- peak intracellular calcium response in Edg7-transfected cells as compared to mock DNA-transfected cells (human Edg7 receptor [1]; CHO cells, 10 μM): approximately 3 fold

Compound: thromboxane B4
- activity against Edg7 (human Edg7 receptor [1]): inactive

Compound: platelet-activating factor
- activity against Edg7 (human Edg7 receptor [1]): inactive

Compound: CCCCCCCCCCCCC/C=C/[C@@H](O)[C@@H](N)COP(=O)([O-])OCC[N+](C)(C)C [sphingosylphosphorylcholine]
- ability to activate Edg7 (inositol phosphate formation) (human Edg7 receptor [4]): No dose-responsiveness

Continued, values first:

- concentration at which nearly maximal responses were observed (human Edg7 receptor [2]; Edg7-injected oocytes, Cl- current): 100 nM
- LPA response (Cl- current) after treatment with PTX (human Edg7 receptor [2]; Edg7-injected oocytes, PTX 25 ng injected 2-5 h prior to recording): substantial current remained
- Cl- current amplitude (human Edg7 receptor [2]; oocytes injected with Edg7 mRNA, oleoyl LPA 1 μM, n=5): 1272±126 nA
- inward Cl- currents, typical response ([3]; control oocytes lacking injection of foreign mRNA): 100-1000 nA
- LPA response (Cl- current) after treatment with PTX ([3]; control oocytes, PTX 25 ng injected 2-5 h prior to recording): nearly abolished
- Cl- current amplitude ([3]; uninjected oocytes, batch with low endogenous LPA activity, oleoyl LPA 1 μM, n=5): 18±18 nA
Compound: Lysophosphatidic acid [LPA]

- intracellular calcium responses in Edg7- versus mock DNA-transfected cells (human Edg7 receptor [1]; CHO cells, n=3): almost identical
Compound: O=c1ccn([C@@H]2O[C@H](COP(=O)(O)OP(=O)(O)OP(=O)(O)O)[C@@H](O)[C@H]2O)c(=O)[nH]1 [UTP]

- activity against Edg7 (human Edg7 receptor [1]): inactive
Compound: CCCCCCCC/C=C\CCCCCCCC(=O)O [oleic acid]

- ability to activate Edg7 (inositol phosphate formation) (human Edg7 receptor [4]): partial agonist
- activation of Edg7 receptors (intracellular calcium) (human Edg7 receptor [1]; CHO cells, n=4): agonist
- increase in intracellular calcium (human Edg7 receptor [1]; Edg7 receptors, CHO cells, n=4): approximately 5 fold
Compound: phosphatidic acid
